Measured values reported in patent publication US20200216463A1, “THAILANSTATIN ANALOGS” (priority 2017, published 2020).

How the values were obtained:
[1] = system: PANC 05.04; experiment: In vitro cytotoxicity on pancreatic cancer cell line (Example 12); type: cell-based, human
Procedure: (§1) Various cancer cell lines were obtained from the American Type Culture Collection (ATCC)). The cells were cultured in a humidified 5% CO2 incubator in a media consisting of RPMI 1640, L-glutamine, and 10% FBS. The cells were passaged as needed using standard tissue culture techniques. The cells were harvested and plated out into 96-well tissue culture treated plates at a density of 5000 cells per well. After allowing the cells to equilibrate for ˜24 hr in a humidified 5% CO2 incubator, the cells were treated with the test compounds at the indicated concentrations. The cells were exposed to the test compounds for three days with no media change. After the treatment period, CellTiter-Glo) Luminescent Cell Viability Assay reagent solution (Promega, Inc., Madison, Wis.; Cat. # G7573) was introduced to each well. The Cell TiterGlo-containing plates were then read on a SpectroMax® iD3 Multi-Mode Microplate reader (Molecular Devices, LLC, San Jose, Calif.). The degree of luminescence was dictated by the abundance of live cells.

[2] = system: PANC 10.05; experiment: as above; type: cell-based, human
Procedure: as §1

[3] = system: HCT 116 cells; experiment: In vitro cytotoxicity, CellTiter-Glo, 72 h (Example 11); type: cell-based; settings: Homo sapiens, HCT-116, 72 h
Procedure: Alternatively, the in vitro cytotoxicity of the compounds of the invention may be measured as described in this example. 180 μl of HCT 116 cells (ATCC, Cat # CCL-247) in McCoy's 5a Medium Modified (Sigma-Aldrich), St. Louis, Mo.)+10% fetal bovine serum were seeded at a density of 5,000 cells/well in a white opaque 96-well plate and incubated for 24 hours at […] in a 5% CO2 incubator. Twenty-four hours post cell seeding, 20 μl of 10× test compounds were diluted such that the final concentrations of the test compounds were in μM concentration. Half log dilutions were used, starting from 10 μM through 0.0001 μM. Puromycin and untreated cells were used as […]. The cells were incubated with the compounds for 72 hours at […] in a 5% CO2 incubator. After 72 hrs, 100 μl/well of CellTiter-Glo® Luminescent Cell Viability Assay reagent (Promega, Inc., Madison, Wis.; Cat # G7573) was added to the plates and incubated at room temperature for 30 minutes. The luminescence signals were captured using EnVision 2105 Multimode Plate Reader (PerkinElmer, Waltham, Mass.). The data were analyzed using non-linear regression curve fit (sigmoidal dose response) in GraphPad Prism software (GraphPad Software, La Jolla, Calif.) by plotting the concentration of drug on the X-axis and the mean % inhibition values on the Y-axis.

Structure (SMILES) | IC50 [1] | IC50 [2] | IC50 [3]
CC(=O)O[C@@H](C)/C=C\C(=O)N[C@@H]1C[C@H](C)[C@H](C/C=C(C)/C=C/[C@H]2O[C@H](CC(=O)O)C[C@@]3(CO3)[C@@H]2O)O[C@@H]1C [Thailanstatin A] | 3 nM | 4 nM | 
COC(=O)C[C@@H]1C[C@@]2(CO2)[C@H](O)[C@@H](/C=C/C(C)=C/C[C@@H]2O[C@H](C)[C@H](NC(=O)/C=C\C(C)c3cc(OC)no3)C[C@@H]2C)O1 (stereo partly drawn) [Compound 5, Methyl 2-((3R, 5S, 7R, 8R)-8-hydroxy-7-((1E, 3E)-5-((2S, 3S, 5R, 6R)-5-((Z)-4-(3-methoxyisoxazol-5-yl)pent-2-enamido)-3,6-dimethyltetrahydro-2H-pyran-2-yl)-3-methylpenta-1,3-dienyl)-1,6-dioxaspiro[2.5]octan-5-yl)acetate] |  |  | 310 nM
